The target of one test is cIAP-1 BIR-3 (Homo sapiens, UniProt Q13490). Description: Fluorescence polarization binding affinity to cIAP-1 BIR-3 (competition with AbuRPF-K(5-Fam)-NH2). As to conditions: 5 nM labeled peptide, 40 nM BIR3, 15 min at RT, pH 7.5; reported as ranges; read-out: KD (c-IAP-1 BIR3). The gist of the method: (§1)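 Test peptides at varied concentrations competed with 5 nM fluorescent Smac-mimetic tracer for 40 nM BIR3 domain, 15 min at RT in 0.1M potassium phosphate pH 7.5 with […] bovine g-globulin. Polarization (mP) read at 485/520 nm; KD reported in bins (A=<0.1 μM, B=0.1–1 μM, C>1–10 μM, D=>10 μM).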
For orientation: Fluorescence polarisation rises when a labelled molecule tumbles more slowly, as on binding a larger partner.

A further test relates to SK-OV-3 cells. Description: Growth inhibition of ovarian cancer cell line SK-OV-3 (MTT assay, cell survival). The class given is cell-based. The note with it: Homo sapiens, drug concentration that results in 50% cell survival, 72 hrs incubation, reported as ranges. In outline:
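After overnight seeding in McCoy's medium with 10% FBS, SK-OV-3 cells were exposed to compound at 0.003-10 μM for 72 hrs at 37° C. MTT was then added for 3 h, with DMSO solubilization and OD read at 535 nm. CC50 is the concentration giving 50% survival relative to untreated control, reported as ranges.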
(Formazan colour is commonly taken as a measure of viable cells.)

The target of another test is T1, XIAP BIR-3 (Homo sapiens, UniProt P98170).
T1 construct: 40 nM of the respective IAP BIR3
The test can be described thus: Fluorescence polarization binding affinity to XIAP BIR-3 (competition with AbuRPF-K(5-Fam)-NH2). As to conditions: 5 nM labeled peptide, 40 nM BIR3, 15 min at RT, pH 7.5; reported as ranges. In outline:
as §1

By pKd is commonly meant the Kd on a negative log10 scale, so that one unit is a factor of ten. Broadly, the CC50 is the concentration at which the toxic effect on the cells reaches its halfway point. Read a low CC50 as harm at low concentration.

pKd: −log10 of the molar value.

Sequence of cIAP-1 BIR-3 (Q13490 266-352 limits assumed): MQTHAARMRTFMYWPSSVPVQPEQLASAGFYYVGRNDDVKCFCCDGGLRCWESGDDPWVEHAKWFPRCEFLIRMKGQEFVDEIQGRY
T1 sequence (P98170 241-356 limits assumed): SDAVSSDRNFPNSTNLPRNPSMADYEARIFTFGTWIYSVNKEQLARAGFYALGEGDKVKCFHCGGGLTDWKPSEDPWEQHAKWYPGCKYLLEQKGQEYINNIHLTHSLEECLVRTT

Turning to `CN[C@@H](C)C(=O)N[C@H](C(=O)N1CC[C@@H]2[C@H]1[C@@H](c1c[nH]c3cc(F)ccc13)CN2CC(=O)O)C1CCCCC1` [Example 42, [4-[2-Cyclohexyl-2-(2-methylamino-propionylamino)-acetyl]-3-(6-fluoro-1H-indol-3-yl)-hexahydro-pyrrolo[3,2-b]pyrrol-1-yl]-acetic acid], the negative logarithm of the Kd (pKd) on cIAP-1 BIR-3 was > 7.00; on XIAP BIR-3, 6.00 to 7.00. For the same compound, the CC50 in the test with SK-OV-3 cells lay within 1 to 10 µM.
As for `CN[C@@H](C)C(=O)N[C@H](C(=O)N1CC[C@@H]2[C@H]1[C@@H](c1c[nH]c3cc(F)ccc13)CN2C(C)=O)C(C)C` [Example 61, N-{1-[4-Acetyl-6-(6-fluoro-1H-indol-3-yl)-hexahydro-pyrrolo[3,2-b]pyrrole-1-carbonyl]-2-methyl-propyl}-2-methylamino-propionamide], the pKd on cIAP-1 BIR-3 and at XIAP BIR-3 was > 7.00 each time. Further, in the test with SK-OV-3 cells, the CC50 is < 0.1 µM.
For the compound `CN[C@@H](C)C(=O)N[C@@H](CO)C(=O)N1CC[C@@H]2[C@H]1[C@@H](c1c[nH]c3ccc(F)cc13)CN2C(C)=O` [Example 73, N-{2-[4-Acetyl-6-(5-fluoro-1H-indol-3-yl)-hexahydro-pyrrolo[3,2-b]pyrrol-1-yl]-1-hydroxymethyl-2-oxo-ethyl}-2-methylamino-propionamide], the pKd at cIAP-1 BIR-3 and at XIAP BIR-3 was > 7.00 in each case. In addition, the cytotoxic concentration (CC50) with SK-OV-3 cells was in the range of 1 to 10 µM.
Regarding `CN[C@@H](C)C(=O)N[C@@H](CO)C(=O)N1CC[C@@H]2[C@H]1[C@@H](c1c[nH]c3cc(F)ccc13)CN2Cc1ccccc1` [Example 103], the pKd on cIAP-1 BIR-3 is 6.00 to 7.00; at XIAP BIR-3 it was 5.00 to 6.00. This compound had a CC50 in the test with SK-OV-3 cells of 1 to 10 µM.
As to `CN[C@@H](C)C(=O)N[C@H](C(=O)N1CC[C@H]2NC[C@H](c3c[nH]c4ccccc34)[C@H]21)[C@@H](C)OC` [Example 90], the pKd at cIAP-1 BIR-3 and on XIAP BIR-3 was > 7.00 throughout. In the test on SK-OV-3 cells, this compound registered a CC50 of 1 to 10 µM.
As for `CN[C@@H](C)C(=O)N[C@H](C(=O)N1CC[C@@H]2[C@H]1[C@@H](c1c[nH]c3cc(F)ccc13)CN2Cc1ccccc1)C(C)(C)C` [Example 104], the pKd at cIAP-1 BIR-3 and on XIAP BIR-3 was > 7.00 throughout. Besides, the CC50 in the test with SK-OV-3 cells was < 0.1 µM.
As for `CN[C@@H](C)C(=O)N[C@H](C(=O)N1C[C@@H](O)[C@@H]2[C@H]1[C@@H](c1c[nH]c3cc(F)ccc13)CN2C(=O)OCc1ccccc1)C1CCCCC1` [Example 84, 4-[2-Cyclohexyl-2-(2-methylamino-propionylamino)-acetyl]-3S-(6-fluoro-1H-indol-3-yl)-6-hydroxy-hexahydro-pyrrolo[3,2-b]pyrrole-1-carboxylic acid benzyl ester], the pKd at cIAP-1 BIR-3 and on XIAP BIR-3 was > 7.00 each time. The CC50 in the test on SK-OV-3 cells is < 0.1 µM.
As to `CN[C@@H](C)C(=O)N[C@H](C(=O)N1CC[C@H]2NC[C@H](c3c[nH]c4cc(F)ccc34)[C@H]21)[C@@H](C)O` [Example 28, N-{1-[6-(6-Fluoro-1H-indol-3-yl)-hexahydro-pyrrolo[3,2-b]pyrrole-1-carbonyl]-2-hydroxy-propyl}-2-methylamino-propionamide], the results for the pKd on cIAP-1 BIR-3 and on XIAP BIR-3 were > 7.00 and 6.00 to 7.00, respectively. In the test with SK-OV-3 cells, the CC50 is 1 to 10 µM.
For `CN[C@@H](C)C(=O)N[C@H](C(=O)N1CC[C@@H]2[C@H]1[C@@H](c1c[nH]c3cc(F)ccc13)CN2C(=O)c1ccccc1)C1CCCCC1` [Example 38, N-{2-[4-Benzoyl-6-(6-fluoro-1H-indol-3-yl)-hexahydro-pyrrolo[3,2-b]pyrrol-1-yl]-1-cyclohexyl-2-oxo-ethyl}-2-methylamino-propionamide], the pKd at cIAP-1 BIR-3 and on XIAP BIR-3 was > 7.00 each time. Moreover, in the test with SK-OV-3 cells, the CC50 was < 0.1 µM.
Turning to `CC[C@H](NC(=O)[C@H](C)NC)C(=O)N1CC[C@@H]2[C@H]1[C@H](c1c[nH]c3cc(F)ccc13)CN2C1CCCC1` [Example 5, N-{1-[4-Cyclopentyl-6-(6-fluoro-1H-indol-3-yl)-hexahydro-pyrrolo[3,2-b]pyrrole-1-carbonyl]-propyl}-2-methylamino-propionamide], the negative-log Kd (pKd) at cIAP-1 BIR-3 is 6.00 to 7.00; at XIAP BIR-3, < 5.00. In the test with SK-OV-3 cells, this compound displayed a CC50 of 1 to 10 µM.
The matching figures for `CN[C@@H](C)C(=O)N[C@@H](CO)C(=O)N1CC[C@@H]2[C@H]1[C@@H](c1c[nH]c3cc(F)ccc13)CN2C(C)=O` [Example 63, N-{2-[4-Acetyl-6-(6-fluoro-1H-indol-3-yl)-hexahydro-pyrrolo[3,2-b]pyrrol-1-yl]-1-hydroxymethyl-2-oxo-ethyl}-2-methylamino-propionamide]: > 7.00, > 7.00 and 1 to 10 µM.
Regarding `CN[C@@H](C)C(=O)N[C@H](C(=O)N1CC[C@@H]2[C@H]1[C@@H](c1c[nH]c3cc(F)ccc13)CN2C1CCCCC1)C1CCCCC1` [Example 20, N-{1-Cyclohexyl-2-[4-cyclohexyl-6-(6-fluoro-1H-indol-3-yl)-hexahydro-pyrrolo[3,2-b]pyrrol-1-yl]-2-oxo-ethyl}-2-methylamino-propionamide], the pKd on cIAP-1 BIR-3 and on XIAP BIR-3 was > 7.00 in each case. In addition, the CC50 in the test on SK-OV-3 cells lay within 0.1 to 1 µM.
On to `CN[C@@H](C)C(=O)N[C@H](C(=O)N1CC[C@@H]2[C@H]1[C@@H](c1c[nH]c3cc(F)ccc13)CN2Cc1ccncc1)C1CCCCC1` [Example 26, N-{1-Cyclohexyl-2-[6-(6-fluoro-1H-indol-3-yl)-4-pyridin-4-ylmethyl-hexahydro-pyrrolo[3,2-b]pyrrol-1-yl]-2-oxo-ethyl}-2-methylamino-propionamide], for which the negative logarithm of the Kd (pKd) on cIAP-1 BIR-3 and on XIAP BIR-3 was > 7.00 throughout. The CC50 in the test with SK-OV-3 cells was < 0.1 µM.
As to `CN[C@@H](C)C(=O)N[C@H](C(=O)N1CC[C@@H]2[C@H]1[C@@H](c1c[nH]c3cc(F)ccc13)CN2c1ncccn1)C1CCCCC1` [Example 75, N-{1-Cyclohexyl-2-[6-(6-fluoro-1H-indol-3-yl)-4-pyrimidin-2-yl-hexahydro-pyrrolo[3,2-b]pyrrol-1-yl]-2-oxo-ethyl}-2-methylamino-propionamide], the pKd on cIAP-1 BIR-3 and at XIAP BIR-3 was > 7.00 throughout. In addition, the CC50 in the test on SK-OV-3 cells is < 0.1 µM.
With `CC[C@H](NC(=O)[C@H](C)NC)C(=O)N1CC[C@@H]2[C@H]1[C@H](c1c[nH]c3cc(F)ccc13)CN2Cc1ccccc1` [Example 106], the pKd on cIAP-1 BIR-3 is 6.00 to 7.00; on XIAP BIR-3, < 5.00. In the test with SK-OV-3 cells, this compound returned a CC50 of 1 to 10 µM.
Regarding `CN[C@@H](C)C(=O)N[C@H](C(=O)N1CC[C@@H]2[C@H]1[C@H](c1c[nH]c3cc(F)ccc13)CN2C(C)=O)C1CCCCC1` [Example 96], the pKd was 6.00 to 7.00 on cIAP-1 BIR-3 and 5.00 to 6.00 on XIAP BIR-3. Moreover, the CC50 with SK-OV-3 cells is 1 to 10 µM.
For `C[C@H](N)C(=O)N[C@H](C(=O)N1CC[C@H]2NC[C@H](c3c[nH]c4cc(F)ccc34)[C@H]21)C1CCCCC1` [Example 88], the pKd on cIAP-1 BIR-3 and on XIAP BIR-3 was > 7.00 throughout. Besides, the CC50 in the test on SK-OV-3 cells is > 10 µM.
Consider `CN[C@@H](C)C(=O)N[C@H](C(=O)N1CC[C@@H]2[C@H]1[C@@H](c1c[nH]c3ccccc13)CN2C(C)C)C1CCCCC1` [Example 98], for which the results for the pKd on cIAP-1 BIR-3 and at XIAP BIR-3 were 6.00 to 7.00 and 5.00 to 6.00, respectively. In the test with SK-OV-3 cells, this compound showed a CC50 of 0.1 to 1 µM.
Taken in the same sequence, the figures for `CN[C@@H](C)C(=O)N[C@H](C(=O)N1CC[C@@H]2[C@H]1[C@@H](c1c[nH]c3ccc(F)cc13)CN2C(C)=O)C(C)C` [Example 68, N-{1-[4-Acetyl-6-(5-fluoro-1H-indol-3-yl)-hexahydro-pyrrolo[3,2-b]pyrrole-1-carbonyl]-2-methyl-propyl}-2-methylamino-propionamide] were > 7.00, > 7.00 and < 0.1 µM.
`CN[C@@H](C)C(=O)N[C@@H](COC)C(=O)N1CC[C@@H]2[C@H]1[C@@H](c1c[nH]c3ccc(F)cc13)CN2C(C)=O` [Example 72, N-{2-[4-Acetyl-6-(5-fluoro-1H-indol-3-yl)-hexahydro-pyrrolo[3,2-b]pyrrol-1-yl]-1-methoxymethyl-2-oxo-ethyl}-2-methylamino-propionamide]: the pKd on cIAP-1 BIR-3 and at XIAP BIR-3 was > 7.00 throughout. The CC50 in the test on SK-OV-3 cells is 1 to 10 µM.
With `CN[C@@H](C)C(=O)N[C@H](C(=O)N1CC[C@@H]2[C@H]1[C@H](c1c[nH]c3cc(F)ccc13)CN2S(C)(=O)=O)[C@@H](C)OC` [Example 57, N-{1-[6-(6-Fluoro-1H-indol-3-yl)-4-methanesulfonyl-hexahydro-pyrrolo[3,2-b]pyrrole-1-carbonyl]-2-methoxy-propyl}-2-methylamino-propionamide], the negative logarithm of the Kd (pKd) on cIAP-1 BIR-3 was 6.00 to 7.00; at XIAP BIR-3, < 5.00. Moreover, in the test with SK-OV-3 cells, the CC50 is > 10 µM.
The matching figures for `CN[C@@H](C)C(=O)N[C@H](C(=O)N1CC[C@H]2NC[C@H](c3cn(Cc4ccccc4)c4cc(F)ccc34)[C@H]21)C1CCCCC1` [Example 91]: > 7.00, > 7.00 and 0.1 to 1 µM.
The matching figures for `CN[C@@H](C)C(=O)N[C@H](C(=O)N1CC[C@@H]2[C@H]1[C@@H](c1c[nH]c3ccccc13)CN2C1CCCCC1)[C@@H](C)OC` [Example 97]: 6.00 to 7.00, 5.00 to 6.00 and 0.1 to 1 µM.

Values taken from patent US8399683B2 (TetraLogic Pharmaceuticals, priority 2008, dated 2013).
